Experimental data reported in ChEMBL document CHEMBL3507680, “University of Dundee, Gates Library screen for HepG2 cell viability”.

Assay: Human HepG2 cell viability assay in 384 well format
Assay type: toxicity, cell-based
Design: dose 125 nL, time 70.5 hour; cytotoxicity at 70.5 h: concentration not given beside the values
Conditions: HepG2 cells, read-out: Inhibition

Point of comparison: `C=C(C)COc1cccc(C(=O)N(CC)Cc2noc(C)n2)c1`, cytotoxicity at 70.5 h -3.04%. Against it:
- CCOCc1nc(CSc2ccncc2)n(C)n1 — higher, 6.25%
- CCOC(=O)N1CCN(C(=O)C2Cc3ccccc3CN2C)CC1 (stereo not given) — higher, 2.75%
- O=C1CC2(CCCC2)CC(=O)N1Cc1ncccn1 — higher, 19.8%
- CCc1oc(C(=O)N2CCC(N(CC)C(C)=O)C2)cc1CN(CC)CC (stereo not given) — lower, -12.3%
- Cc1nc(C)n(CC(C)C(=O)N2CCC(NS(C)(=O)=O)CC2)n1 (stereo not given) — higher, 34.2%
- CC(C)CS(=O)(=O)CCNC(=O)Nc1cccc2ncccc12 — higher, 19.9%
- COc1ccc(C(=O)C2CCCN(Cc3ccccc3O)C2)c(OC)c1 (stereo not given) — higher, 35.7%
- COc1cc(C)c(CN2CCC3(CC2)[C@H](O)C[C@@H]3OCCN)cc1C — higher, 28.1%
- Cc1ccsc1CN(CCN(C)C)C(=O)c1ccccc1C#N — higher, -0.2%
- CCN1CCCC(c2c(-c3ccccc3)ncn2CCCO)C1 (stereo not given) — lower, -8.57%
- CCn1c(C)nnc1SCCNc1cc(N2CCOCC2)ncn1 — lower, -18.8%
- CC(Cc1ccccn1)N(C)Cc1ccc2c(c1)CCO2 (stereo not given) — lower, -8.85%
- CCc1cc(CN(C)C(=O)C2CC(=O)N(c3cccc(O)c3)C2)on1 (stereo not given) — higher, -1.3%
- COCCC1(CO)CCCN(CCCc2ccccc2)C1 (stereo not given) — higher, 22.6%
- O=C(c1csc(-c2ccc(C(F)(F)F)cc2)n1)N1CCCNCC1 — higher, -2.7%
- CCC[C@@H]1CN(C(=O)c2ccccc2-c2ccccc2)C[C@H]1N(C)C — higher, 0.165%
- CN(C)c1nc2c(c(NCc3cc(O)ncn3)n1)CCCC2 — lower, -4.94%
- CC(C)Nc1cc(N2CCC(n3cc(C4CC4)nn3)CC2)ncn1 — higher, 23.9%
- Cc1cccc(CN2CCCC3(CCN(C4CCSCC4)C3)C2=O)c1 (stereo not given) — higher, 7.94%
- Cc1nc(CN2CCCCC2CCc2ccc(O)cc2)no1 (stereo not given) — higher, 6.16%
- Cc1ccccc1C1CCCN(C(=O)c2c[nH]c(=O)c(Cl)c2)C1 (stereo not given) — lower, -12%
- O=C(O)C(c1ccc2[nH]ccc2c1)N1CCOCC1 (stereo not given) — higher, 9.07%
- Cc1ccsc1CNc1ccccc1C(=O)N1CCNC(=O)C1 — higher, 16.9%
- O=S(=O)(c1cccc(F)c1)N1C[C@@H]2CC[C@H](C1)N(Cc1ccccc1)C2 — lower, -12.7%
- CCN1CC(C(=O)N(C)Cc2cc3cc(F)ccc3[nH]2)CC1=O (stereo not given) — higher, -0.954%
- CC(C)Oc1ccc(CN2CCCC(N3CCCC3)C2)cc1CO (stereo not given) — higher, 2.77%
- O=C(c1ccc2cccc(F)c2n1)N1CCN(CCn2cccc2)CC1 — higher, 9.26%
- O=C(c1ccc(-c2cccc3c2CCNC3)o1)N1CCOCC1 — lower, -6.54%
- Cc1csc2ncn(C(C)Cc3cccnc3)c(=O)c12 (stereo not given) — lower, -4.53%
- O=c1[nH]c(-c2ccc(F)c(F)c2)nc2c1CCNC2 — higher, -1.92%
- COCCCC1(CO)CCCN(CCc2ccccn2)C1 (stereo not given) — higher, 0.702%
- COc1cnc(N2CCCN(c3ccc(F)cc3)CC2)nc1 — higher, 8.19%
- CN(Cc1n[nH]c(=O)n1Cc1ccco1)S(C)(=O)=O — higher, 2.27%
- NC(=O)c1csc(N2C[C@@H](CN3CCCCC3)[C@@H](CO)C2)n1 — lower, -6.7%
- Cc1cc(CN(C)C(=O)C(c2ccccc2C)N(C)C)on1 (stereo not given) — lower, -6.35%
- CCCN(Cc1cccnc1)C(=O)C1CCCN(C)C1 (stereo not given) — higher, 2.68%
- Cc1nc[nH]c1CN1CCC(C2CCN(CCc3ccccc3)C2)CC1 (stereo not given) — higher, -1.67%
- Cc1ccc(C(=O)N[C@H]2CN(CCO)C[C@@H]2C2CC2)cc1Cl — higher, 1.11%
- CCc1cc(N2CC(N3CCCCC3C)C2)n2nccc2n1 (stereo not given) — higher, 6.74%
- COc1ccc(-c2n[nH]cc2CN(C)Cc2nonc2C)c(F)c1 — lower, -3.77%
- CCC[C@@H]1CN(Cc2cc(C#N)n(C)c2C)C[C@H]1NS(C)(=O)=O — lower, -6.42%
- CCc1cnc(N)nc1NCCCN1CCCCC1CO (stereo not given) — lower, -8.8%
- COCCn1ccnc1C1CCCN(c2cc(OC)nc(N)n2)C1 (stereo not given) — higher, 31.1%
- Cc1nccn1CCN(C)c1cc(C(C)C)nc2ccnn12 — higher, -2.26%
- Nc1ccnc(-c2cc(NC3CCNCC3)nc3[nH]ccc23)c1 — lower, -3.27%
- Cc1ccc(-n2c(COCC(=O)O)nc3c(C)cccc32)nc1 — lower, -4.5%
- COCc1nc(NC(C)Cc2cc(C)n[nH]2)c2cnn(C)c2n1 (stereo not given) — higher, -0.0562%
- CCC(NC(=O)c1cc(CC(C)C)nn1C)c1cc(C)ccn1 (stereo not given) — lower, -19.2%
- Cc1ccc(S(=O)(=O)N2CCN(C)C3(CCC(=O)N(C)CC3)C2)s1 (stereo not given) — lower, -5.58%
- O=C(c1cccc(S(=O)(=O)NCCc2cscn2)c1)N1CCOCC1 — higher, -1.05%
- COc1ccccc1OC1CCN(c2nccc(N)n2)CC1 — higher, 19.5%
- O=C1NC[C@@]2(C(=O)O)CN(Cc3ccc(Oc4ccccc4)cc3)C[C@@H]12 — higher, -1.43%
- O=C(CCC1CCCN(C(=O)CCc2ccc(F)c(F)c2)C1)NC1CC1 (stereo not given) — lower, -8.38%
- COc1cc(CN2CCC(O)(c3ccc(C)cn3)CC2)cc(Cl)c1OC — higher, 17.5%
- NC(=O)c1cccnc1N1CCN(c2ncnc3c2CCNC3)CC1 — higher, -1.91%
- Cc1cnc(NCCc2c[nH]cn2)nc1-c1ccnn1C — lower, -11.6%
- O=C1N(CC2CCC2)CCCC12CCN(S(=O)(=O)c1cccnc1)C2 (stereo not given) — lower, -4.23%
- COc1ccccc1-c1ncc(CN2C[C@H](O)[C@@H](N3CCCC3)C2)s1 — lower, -14.6%
- Cn1ccc(C(=O)N2CCCN(CCCc3ccccc3)CC2)cc1=O — lower, -17.2%
- Cc1ccc2cc(CN(C)Cc3ncc[nH]3)c(=O)[nH]c2c1 — higher, 26.6%
- Cc1ccc(C)c(C(=O)N2CCOC(CCN(C)C)C2)c1 (stereo not given) — lower, -9.2%
- COc1ccc(Cl)cc1NC(=O)CCC1CCCN(Cc2ncon2)C1 (stereo not given) — higher, -1.15%
- COCc1ncc(CN2CC(Oc3c(C)cccc3C)C2)cn1 — higher, -0.994%
- COCC1(NC(=O)Nc2nc(C)ns2)CCCC1 — lower, -13.9%
- COCC(=O)N1C[C@H]2CNC[C@@]2(C(=O)NCc2cccc3[nH]ccc23)C1 — lower, -3.16%
- CSc1nccc(N2C[C@@H]3CC[C@H](C2)N(CC2CCC2)C3=O)n1 — higher, 13%
- COc1ccc(F)c(CN2CCCC(O)(CNCc3ccoc3)C2=O)c1 (stereo not given) — higher, -0.0121%
- CN(CC1(CO)CCC1)C(=O)C1CCC(=O)N(Cc2ccc(Cl)cc2)C1 (stereo not given) — higher, -1.24%
- Cc1ccsc1S(=O)(=O)N1CCc2c(c(C(=O)O)nn2CC2CC2)C1 — lower, -7.3%
- O=C1CN(Cc2cc(O)c3cccc(F)c3n2)CCN1C1CCCC1 — higher, 5.5%
- COC(=O)c1ccc(N2CCN(C(=O)c3ccn(C)c(=O)c3)CC2)cc1 — higher, 1.93%
- CN(Cc1ccccc1)C1(C(=O)NC(C)(C)CO)Cc2ccccc2C1 — higher, 2.66%
- O=S(=O)(c1ccc(-c2cnco2)cc1)N1CCCC2(CCNCC2)CC1 — higher, 0.207%
- Nc1ccc(C(=O)N2C[C@@H]3CC[C@H](C2)N(Cc2ccccc2)C3)cn1 — higher, -2.24%
- CC(C)N1CCOC(Cc2nn3c(Cc4ccccc4)nnc3s2)C1 (stereo not given) — lower, -18.2%
- CN(Cc1ccco1)c1ccc(-c2nccn2C)nn1 — higher, 9.03%
- Nc1nccc(N[C@H]2CN(CC(=O)NC3CCCCC3)C[C@@H]2C2CC2)n1 — higher, 5.92%
- Cn1cc(Cl)c(C(=O)N2CCCN(C3Cc4ccccc4C3)CC2)n1 — higher, 47.8%
- COc1cc(F)ccc1-c1ncccc1NC(=O)C(C)C — lower, -7.03%
